The subject of the assay is human taste testers. Briefly: Tasting of amino acid solutions in citric acid buffer for bitterness, with and without taste modulator. As to conditions: for bitterness intensity: 7.5 mM solution in pH 3.2 CAB, 0-15 intensity scale; for Bitter Taste Threshold in CAB: pH 3.2 Citric Acid Buffer, serial dilutions from 30 mM to 1.88 mM tasted in ascending order. The format is in vivo.

Structures are written as SMILES.

Regarding `N[C@@H](Cc1ccccc1)C(=O)O` [L-Phe, L-Phenylalanine], the bitterness intensity was 5 and the “Bitter Taste Threshold in CAB” value is “ca. 3 mM”.
Take `N[C@@H](Cc1c[nH]c2ccccc12)C(=O)O` [L-Trp, L-Tryptophan]: the bitterness intensity stood at 5 and the “Bitter Taste Threshold in CAB” value is on record as “ca. 3 mM”. For the same compound, for the setting “in pH 3.2 CAB”, the “bitterness onset and linger” value was “noticeably slow in onset and quite lingering”.

The values are drawn from patent publication US20240180221A1, “METHODS AND COMPOSITIONS FOR IMPROVED TASTE QUALITY” (ALMENDRA PTE. LTD., priority 2021, published 2024).
